{
  "source": "patent US9884018B2",
  "about": "“Mesalamine suppository” (Aptalis Pharma Canada Inc., priority 2007, dated 2018)",
  "assay_type_in_all_cases": "physicochemical",
  "key": {"[1]": {"assay": "Tap density of mesalamine powder by USP tapped density test <616>", "settings": "for Mesalamine Tap Density: mesalamine lot used for the molten mixture, Table 9; for Tapped Density: mesalamine powder lot, Table 8; for TD (measured tapped density): individual mesalamine lot used in combination, Table 10", "experimental": "Unless otherwise specified, tap density is measured by the USP tapped density test <616>.\nThe individual tap densities of each mesalamine lot were used to calculate a composite tapped density (CTD) based on the amount of each lot. The calculated CTD can be expressed by the following equation: (CDF)i+(CDF)2 + . . . (CDF)n=CTD where CTD=composite tapped density: CDF=contributed density factor=% of total drug used/100×TD; TD=measured tapped density; and n=number of drug lots used."}, "[2]": {"assay": "Viscosity of molten mixture of mesalamine and hard fat", "settings": "molten mixture prepared from the mesalamine lot, Table 11"}, "[3]": {"assay": "Viscosity of molten mixture of mesalamine and hard fat", "settings": "in-process molten mixture of mesalamine and hard fat", "experimental": "Molten mixtures were prepared by the procedure described in Example 1 using mesalamine lots A, B, and E, The molten mixtures had the viscosities reported in Table 9 below.\nThe in-process molten mixtures of mesalamine and hard fat used in the preparation of the suppositories described above with respect to FIGS. 4 to 6 had the viscosities reported in Table 12 below. Suppositories could not be made from Grades C and D from supplier 2."}},
  "data": [
    {"molecule": "Nc1ccc(O)c(C(=O)O)c1", "note": "[Mesalamine Lot A, mesalamine]", "values": [
      {"measurement": "Mesalamine Tap Density", "setting": "[1]; listed as A", "value": 0.81, "unit": "g/mL"},
      {"measurement": "Tapped Density", "setting": "[1]; listed as A", "value": 0.81, "unit": "g/mL"}
    ]},
    {"molecule": "Nc1ccc(O)c(C(=O)O)c1", "note": "[Mesalamine Lot B, mesalamine]", "values": [
      {"measurement": "Mesalamine Tap Density", "setting": "[1]; listed as B", "value": 0.72, "unit": "g/mL"},
      {"measurement": "Tapped Density", "setting": "[1]; listed as B", "value": 0.72, "unit": "g/mL"}
    ]},
    {"molecule": "Nc1ccc(O)c(C(=O)O)c1", "note": "[Mesalamine Lot C, mesalamine]", "values": [
      {"measurement": "TD (measured tapped density)", "setting": "[1]; listed as C", "value": 0.68, "unit": "g/mL"},
      {"measurement": "Tapped Density", "setting": "[1]; listed as C", "value": 0.68, "unit": "g/mL"}
    ]},
    {"molecule": "Nc1ccc(O)c(C(=O)O)c1", "note": "[Mesalamine Lot D, mesalamine]", "values": [
      {"measurement": "TD (measured tapped density)", "setting": "[1]; listed as D", "value": 0.37, "unit": "g/mL"},
      {"measurement": "Tapped Density", "setting": "[1]; listed as D", "value": 0.39, "unit": "g/mL"}
    ]},
    {"molecule": "Nc1ccc(O)c(C(=O)O)c1", "note": "[Mesalamine Lot E, mesalamine]", "values": [
      {"measurement": "TD (measured tapped density)", "setting": "[1]; listed as E", "value": 0.68, "unit": "g/mL"},
      {"measurement": "Mesalamine Tap Density", "setting": "[1]; listed as E", "value": 0.68, "unit": "g/mL"},
      {"measurement": "Tapped Density", "setting": "[1]; listed as E", "value": 0.68, "unit": "g/mL"}
    ]},
    {"molecule": "Nc1ccc(O)c(C(=O)O)c1", "note": "[Mesalamine Lot F, mesalamine]", "values": [
      {"measurement": "TD (measured tapped density)", "setting": "[1]; listed as F", "value": 0.46, "unit": "g/mL"},
      {"measurement": "Tapped Density", "setting": "[1]; listed as F", "value": 0.46, "unit": "g/mL"}
    ]},
    {"molecule": "Nc1ccc(O)c(C(=O)O)c1", "note": "[Mesalamine Lot G, mesalamine]", "values": [
      {"measurement": "TD (measured tapped density)", "setting": "[1]; listed as G", "value": 0.60, "unit": "g/mL"},
      {"measurement": "Tapped Density", "setting": "[1]; listed as G", "value": 0.60, "unit": "g/mL"}
    ]},
    {"molecule": "Nc1ccc(O)c(C(=O)O)c1", "note": "[Mesalamine Lot No. 7, mesalamine]", "values": [
      {"measurement": "Tap Density", "setting": "[1]; mesalamine lot nos. 1-8, Table 11, listed as 7", "value": 0.36, "unit": "g/mL"},
      {"measurement": "Viscosity", "setting": "[2]; listed as 7", "value": 37830, "unit": "cps"}
    ]},
    {"molecule": "Nc1ccc(O)c(C(=O)O)c1", "note": "[Mesalamine Lot No. 8, mesalamine]", "values": [
      {"measurement": "Tap Density", "setting": "[1]; mesalamine lot nos. 1-8, Table 11, listed as 8", "value": 0.37, "unit": "g/mL"},
      {"measurement": "Viscosity", "setting": "[2]; listed as 8", "value": 33735, "unit": "cps"}
    ]},
    {"molecule": "Nc1ccc(O)c(C(=O)O)c1", "note": "[Supplier 1, mesalamine]", "values": [
      {"measurement": "Dispersion Viscosity", "setting": "[3]; Drug Load 33% w/w", "value": 694, "unit": "Cps"},
      {"measurement": "Dispersion Viscosity", "setting": "[3]; Drug Load 37% w/w", "value": 1131, "unit": "Cps"},
      {"measurement": "Dispersion Viscosity", "setting": "[3]; Drug Load 42% w/w", "value": 2512, "unit": "Cps"}
    ]},
    {"molecule": "Nc1ccc(O)c(C(=O)O)c1", "note": "[Supplier 2, grade A, mesalamine]", "values": [
      {"measurement": "Dispersion Viscosity", "setting": "[3]; Drug Load 33% w/w", "value": 595, "unit": "Cps"},
      {"measurement": "Dispersion Viscosity", "setting": "[3]; Drug Load 37% w/w", "value": 1084, "unit": "Cps"},
      {"measurement": "Dispersion Viscosity", "setting": "[3]; Drug Load 42% w/w", "value": 2553, "unit": "Cps"}
    ]},
    {"molecule": "Nc1ccc(O)c(C(=O)O)c1", "note": "[Supplier 2, grade B, mesalamine]", "values": [
      {"measurement": "Dispersion Viscosity", "setting": "[3]; Drug Load 33% w/w", "value": 515, "unit": "Cps"},
      {"measurement": "Dispersion Viscosity", "setting": "[3]; Drug Load 37% w/w", "value": 845, "unit": "Cps"},
      {"measurement": "Dispersion Viscosity", "setting": "[3]; Drug Load 42% w/w", "value": 1911, "unit": "Cps"}
    ]},
    {"molecule": "Nc1ccc(O)c(C(=O)O)c1", "note": "[Supplier 2, grade C, mesalamine]", "values": [
      {"measurement": "Tap Density", "setting": "[1]; mesalamine by source, Table 12", "value": 0.00058, "unit": "g/mL"},
      {"measurement": "Dispersion Viscosity", "setting": "[3]; Drug Load 33% w/w", "value": "Too Viscous"}
    ]},
    {"molecule": "Nc1ccc(O)c(C(=O)O)c1", "note": "[Supplier 2, grade D, mesalamine]", "values": [
      {"measurement": "Dispersion Viscosity", "setting": "[3]; Drug Load 33% w/w", "value": "Poor"}
    ]}
  ]
}
